{
  "source": "patent US20240226076A1",
  "about": "“Inhibitors of Tryptases and Their Use in Treating Allergies” (The Board of Trustees of the Leland Stanford Junior …, priority 2021, published 2024)",
  "key": {"Kallikrein-12": {"molecular_target": "T1, Kallikrein-12 (Homo sapiens, UniProt Q9UKR0)", "T1 construct": "purchased Reaction Biology Corp", "T1 sequence (Q9UKR0 18-248)": "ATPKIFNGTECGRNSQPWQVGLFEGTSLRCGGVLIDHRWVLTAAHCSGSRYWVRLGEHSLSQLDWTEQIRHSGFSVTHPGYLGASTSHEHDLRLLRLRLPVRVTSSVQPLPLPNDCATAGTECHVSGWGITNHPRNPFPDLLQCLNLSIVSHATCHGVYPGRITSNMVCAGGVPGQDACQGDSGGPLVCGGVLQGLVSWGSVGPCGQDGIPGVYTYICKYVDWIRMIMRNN", "assay": "Protease activity array (Reaction Biology Corp), Kallikrein-12", "format": "biochemical", "conditions": "recombinant protease, 10-dose IC50, fluorescently labeled peptide substrate", "protocol": "(§1) Avoralstat can inhibit Tryptase-b2 and -g1 as well as it inhibits KLKB1 in vitro. Avoralstat was assessed for inhibition against a panel of recombinant proteases including 2 Tryptases (Tryptase-b2 and -g1) and KLKB1 by commercial services from Reaction Biology Corp. The Reaction Biology Corp profile tested in a 10-dose IC50, with a dose range from 38 pM to 10 μM, against 70 proteases in FIG. 1E.\n(§2) Protease activity array. […] The protease activities were monitored as a time-course measurement of the increase in fluorescence signal from fluorescently labeled peptide substrate, and initial linear portion of slope (signal/min) was analyzed."}, "Tryptase-g1": {"molecular_target": "T2, Tryptase-g1 (Homo sapiens, UniProt Q9NRR2)", "T2 construct": "purchased Reaction Biology Corp", "T2 sequence (Q9NRR2 20-321)": "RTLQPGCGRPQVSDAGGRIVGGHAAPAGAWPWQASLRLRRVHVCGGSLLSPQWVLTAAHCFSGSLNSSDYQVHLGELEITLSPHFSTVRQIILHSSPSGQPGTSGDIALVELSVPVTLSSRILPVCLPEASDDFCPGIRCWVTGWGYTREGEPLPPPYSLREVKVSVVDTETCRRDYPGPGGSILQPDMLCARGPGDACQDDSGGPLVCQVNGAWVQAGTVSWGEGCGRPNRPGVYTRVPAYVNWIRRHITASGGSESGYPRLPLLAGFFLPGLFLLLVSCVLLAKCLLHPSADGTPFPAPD", "assay": "Protease activity array (Reaction Biology Corp), Tryptase-g1", "format": "biochemical", "protocol": "as §1, §2"}, "Tryptase-b2": {"molecular_target": "T3, Tryptase-b2 (Homo sapiens, UniProt P20231)", "T3 construct": "purchased Reaction Biology Corp", "T3 sequence (P20231 31-275)": "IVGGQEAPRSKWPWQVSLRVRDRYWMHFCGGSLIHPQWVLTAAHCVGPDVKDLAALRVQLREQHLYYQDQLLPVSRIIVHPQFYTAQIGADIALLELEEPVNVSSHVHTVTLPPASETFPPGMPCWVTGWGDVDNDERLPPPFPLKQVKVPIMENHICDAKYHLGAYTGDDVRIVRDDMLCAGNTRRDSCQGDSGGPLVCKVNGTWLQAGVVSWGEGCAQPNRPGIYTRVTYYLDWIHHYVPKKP", "assay": "Protease activity array (Reaction Biology Corp), Tryptase-b2", "format": "biochemical", "protocol": "as §1, §2"}, "[1]": {"conditions": "oral drug, phase III clinical trials for hereditary angioedema; cited from earlier work"}, "Kallikrein-14": {"molecular_target": "T4, Kallikrein-14 (Homo sapiens, UniProt Q9P0G3)", "T4 construct": "purchased Reaction Biology Corp", "T4 sequence (Q9P0G3 25-251)": "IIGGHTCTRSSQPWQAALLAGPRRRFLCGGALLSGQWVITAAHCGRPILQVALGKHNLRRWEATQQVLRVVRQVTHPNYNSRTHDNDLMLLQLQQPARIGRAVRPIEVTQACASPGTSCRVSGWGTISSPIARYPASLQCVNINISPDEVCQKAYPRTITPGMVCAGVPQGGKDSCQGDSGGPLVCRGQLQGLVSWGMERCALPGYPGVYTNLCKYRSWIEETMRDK", "assay": "Protease activity array (Reaction Biology Corp), Kallikrein-14", "format": "biochemical", "conditions": "recombinant protease, 10-dose IC50, fluorescently labeled peptide substrate", "protocol": "as §1, §2"}, "KLKB1": {"molecular_target": "T5, KLKB1 (Homo sapiens, UniProt P03952)", "T5 construct": "purchased Reaction Biology Corp", "T5 sequence (P03952 20-638)": "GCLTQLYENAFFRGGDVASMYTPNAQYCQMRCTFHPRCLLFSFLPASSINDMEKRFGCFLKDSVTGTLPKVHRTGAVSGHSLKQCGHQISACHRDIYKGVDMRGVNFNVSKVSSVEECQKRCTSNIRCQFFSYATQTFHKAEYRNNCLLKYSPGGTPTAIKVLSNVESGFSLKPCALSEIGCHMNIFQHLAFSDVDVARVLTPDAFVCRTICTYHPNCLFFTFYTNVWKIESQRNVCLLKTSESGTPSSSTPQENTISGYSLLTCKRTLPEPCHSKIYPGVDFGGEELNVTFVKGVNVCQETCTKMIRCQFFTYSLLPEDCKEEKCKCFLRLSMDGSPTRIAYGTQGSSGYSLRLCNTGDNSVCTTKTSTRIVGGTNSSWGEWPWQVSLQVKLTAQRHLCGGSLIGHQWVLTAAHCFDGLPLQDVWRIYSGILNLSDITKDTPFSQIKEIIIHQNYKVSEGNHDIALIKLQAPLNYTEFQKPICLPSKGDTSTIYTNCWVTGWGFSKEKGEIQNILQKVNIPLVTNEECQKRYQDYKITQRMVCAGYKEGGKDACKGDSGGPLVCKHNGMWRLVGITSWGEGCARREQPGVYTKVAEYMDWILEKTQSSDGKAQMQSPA", "assay": "Protease activity array (Reaction Biology Corp), KLKB1", "format": "biochemical", "protocol": "as §1, §2"}},
  "data": [
    {"smiles": "C=Cc1cc(C(=O)Nc2ccc(C(=N)N)cc2)c(-c2ccc(C(=O)NCC3CC3)nc2C(=O)O)cc1OC", "note": "[Avoralstat]", "values": [
      {"measurement": "inhibition", "setting": "Kallikrein-12", "value": "sub-nanomolar inhibition"},
      {"measurement": "IC50", "setting": "Tryptase-g1", "value": 0.93, "unit": "nM"},
      {"measurement": "IC50", "setting": "Tryptase-b2", "value": 0.99, "unit": "nM"},
      {"measurement": "clinical safety", "setting": "[1]", "value": "clinically proven to be safe"},
      {"measurement": "inhibition", "setting": "Kallikrein-14", "value": "sub-nanomolar inhibition"},
      {"measurement": "IC50", "setting": "KLKB1", "value": 0.13, "unit": "nM"}
    ]}
  ]
}
